# Reference: patent publication US7875586B2 (priority 2002, dated 2011)
# “Also recorded” adds a separate entry of the source. Peptide text beside a SMILES is read from it. * marks the point of attachment. Cbz = O=C(OCc1ccccc1)*; CH2F = FC*
# What was measured:
# Assay type in all cases: cell-based, human
# living Caco-2 cells = test system: living Caco-2 cells
# T-84 cells = test system: T-84 cells
# Caco-2 cells [1] = test system: Caco-2 cells
# Caco-2 cells [2] = test system: Caco-2 cells; remark: listed apart in the source
smiles,measurement,setting,value
C[C@@H](N)[C@H]1CC[C@H](C(=O)Nc2ccncc2)CC1 [Y-27632],Cell morphology,living Caco-2 cells,pronounced effects
same,Filopodia and filopodia-mediated cell-cell contacts,living Caco-2 cells,did not change
"CCCCCCCCCCCCCCCC(=O)NC(CN1CCOCC1)C(O)c1ccccc1 (stereo not drawn) [PPMP, threo-1-phenyl-2-palmitoylamino-3-morpholino-1-propanol]",Subpopulation of Gb3 enriched cells with filopodia on the leading edge,T-84 cells,completely eliminated
same,Subpopulation of Gb3 enriched cells with filopodia on the leading edge,Caco-2 cells [1],completely eliminated
COC(=O)C[C@H](NC(=O)[C@H](C)NC(=O)[C@@H](NC(=O)OCc1ccccc1)C(C)C)C(=O)CF [z-VAD-fink] (Cbz-Val-Ala-Asp(OMe)-CH2F),Effect of caspase inhibition on DNA fragmentation caused by Stx1B,Caco-2 cells [2],decreased DNA fragmentation; also recorded: Inhibition of apoptotic DNA fragmentation
